Assay results: US4540428A (priority 1983, dated 1985)

Key:
[1] = system: soil urease; experiment: Urea hydrolyzed as a function of time in soil at 35° C. (procedure of Example VI, FIG. 1); type: biochemical; details: 10 micrograms of urease inhibitor per gram of soil; for urease inhibiting activity at 35° C. (in words): soil at 35° C. (95° F.), period of 12 days, sampled every two days
Method: The drawing is a graph of urea hydrolyzed as a function of time at 35° C. using 10 micrograms of urease inhibitor per gram of soil.
Certain compounds were evaluated to determine their effectiveness as urease inhibitors. The inhibition tests were run in a New York State soil (Cazenovia sandy loam, pH 7.2). Evaluations (run in triplicate) consisted of applying 800 micrograms of test compound in 5 mL of water and 42.8 mg urea in 1 mL of water to 20 g of air-dry soil in a glass bottle. The bottle was capped with perforated aluminum foil and incubated at 25° C. for 3 days prior to extraction with 100 mL of 2M KCl solution containing 0.5 mg of phenylmercuric acetate. The extracts were then analyzed for remaining urea using an autoanalyzer. Percent inhibition was calculated as [formula] where A is urea recovered from unincubated sample (urea added to soil and immediately extracted); B is urea recovered from inhibited sample; and C is urea recovered from the control (uninhibited sample).
Employing the procedure of Example VI, the urease inhibiting activity at 35° C. of the prior art urease inhibitor, phenyl phosphorodiamidate, and N-(2-chloroethyl)phosphoric triamide were evaluated. In the evaluation, soil samples were taken every two days and analyzed for urea content.

[2] = system: soil urease; type: biochemical; details: for % Inhibition 40 microgram per gram soil: pH 7.2
[3] = system: urease; details: stated as well known; cited from earlier work

Compound | urease inhibiting activity at 35° C. (in words) [1] | % Inhibition 1 microgram per gram soil [2] | % Inhibition 40 microgram per gram soil [2] | time to essentially complete urea hydrolysis ([1]; soil at 35° C.) | inhibitory effect on urease at 25° C. (in words) [3]
NP(N)(=O)NCCCl [Experiment 1, N-2-Chloroethyl Phosphoric Triamide] | excellent inhibitor | – | – | – | –
NP(N)(=O)NCCCl [Experiment 1] | – | 77% | 100% | – | –
NP(N)(=O)NCCCBr [Experiment 3] | – | 83% | 99% | – | –
NP(N)(=O)Oc1ccccc1 [phenyl phosphorodiamidate] | much less effective | – | – | essentially complete urea hydrolysis after only six days | excellent inhibitory effect
